Where two headings read alike, the source gives them in different places.
Assays:
U937 cells = assay: Caspase 3 apoptotic assay in U937 cells; assay type: cell-based, human; conditions: U937, 24 hrs
Method: (§1) FIG. 1: a) Cell cycle analysis of U937 cells treated for 30 hrs with the indicated compounds used at 1 and 5 μM; b) Caspase 3 apoptotic assay of the indicated compounds after 24 hrs of treatment in the U937 cells; c) Tubulin acetylation and p21 expression levels at 6 and 16 hrs after treatment with the indicated compounds; total tubulin expression levels are used for equal loading; d) Histone H3 acetylation and K9 H3 methylation expression levels at 6 and 16 hrs after treatment with the indicated compounds; total tubulin expression levels are used for equal loading; e) K9, K14, K18 histone H3 acetylation expression levels at 6 and 16 hrs after treatment with the indicated compounds; total ERKs expression levels are used for equal loading; f) HDAC1 enzymatic assay: IP-HDAC1 is incubated with the indicated inhibitors for 24 Hrs; activity is measured as ^3H-acetyl release; g) HDAC4 enzymatic assay: IP-HDAC4 is incubated with the indicated inhibitors for 24 hrs; activity is measured as ^3H-acetyl release.

[1] = tested on: prostate cancer cells (LnCap); assay: Anti-proliferative and apoptogenic action in prostate cancer cells; assay type: cell-based; conditions: data not shown
HDAC = conditions: cited from earlier work
histone H3 = assay: Histone H3 acetylation and K9 H3 methylation levels in U937 cells; assay type: cell-based, human; conditions: U937, 6 and 16 hrs
Method: as §1
(§2) For the determination of p21^WAF1/CIP1 and p16^INK4 100 μg of total protein extracts were separated on a 15% polyacrylammide gels and blotted. Western blots were shown for p21 (Transduction Laboratories, dilution 1:500), p16 (Santa Cruz) and total ERKs (Santa Cruz) were used to normalise for equal loading. For alpha-tubulin acetylation 25 μg of total protein extracts were separated on a 10% polyacrylamide gels and blotted. Western blots were shown for acetylated alpha-tubulin (Sigma, dilution 1:500) and total ERKs (Santa Cruz) or total tubulin (Sigma) were used to normalise for equal loading.

HDAC4 = HDAC4 (Homo sapiens, UniProt P56524); assay: HDAC4 enzymatic assay (IP-HDAC4, 3H-acetyl release); assay type: biochemical; conditions: IP-HDAC4 incubated with inhibitor 24 hrs
HDAC4, sequence (P56524 whole entry, species assumed): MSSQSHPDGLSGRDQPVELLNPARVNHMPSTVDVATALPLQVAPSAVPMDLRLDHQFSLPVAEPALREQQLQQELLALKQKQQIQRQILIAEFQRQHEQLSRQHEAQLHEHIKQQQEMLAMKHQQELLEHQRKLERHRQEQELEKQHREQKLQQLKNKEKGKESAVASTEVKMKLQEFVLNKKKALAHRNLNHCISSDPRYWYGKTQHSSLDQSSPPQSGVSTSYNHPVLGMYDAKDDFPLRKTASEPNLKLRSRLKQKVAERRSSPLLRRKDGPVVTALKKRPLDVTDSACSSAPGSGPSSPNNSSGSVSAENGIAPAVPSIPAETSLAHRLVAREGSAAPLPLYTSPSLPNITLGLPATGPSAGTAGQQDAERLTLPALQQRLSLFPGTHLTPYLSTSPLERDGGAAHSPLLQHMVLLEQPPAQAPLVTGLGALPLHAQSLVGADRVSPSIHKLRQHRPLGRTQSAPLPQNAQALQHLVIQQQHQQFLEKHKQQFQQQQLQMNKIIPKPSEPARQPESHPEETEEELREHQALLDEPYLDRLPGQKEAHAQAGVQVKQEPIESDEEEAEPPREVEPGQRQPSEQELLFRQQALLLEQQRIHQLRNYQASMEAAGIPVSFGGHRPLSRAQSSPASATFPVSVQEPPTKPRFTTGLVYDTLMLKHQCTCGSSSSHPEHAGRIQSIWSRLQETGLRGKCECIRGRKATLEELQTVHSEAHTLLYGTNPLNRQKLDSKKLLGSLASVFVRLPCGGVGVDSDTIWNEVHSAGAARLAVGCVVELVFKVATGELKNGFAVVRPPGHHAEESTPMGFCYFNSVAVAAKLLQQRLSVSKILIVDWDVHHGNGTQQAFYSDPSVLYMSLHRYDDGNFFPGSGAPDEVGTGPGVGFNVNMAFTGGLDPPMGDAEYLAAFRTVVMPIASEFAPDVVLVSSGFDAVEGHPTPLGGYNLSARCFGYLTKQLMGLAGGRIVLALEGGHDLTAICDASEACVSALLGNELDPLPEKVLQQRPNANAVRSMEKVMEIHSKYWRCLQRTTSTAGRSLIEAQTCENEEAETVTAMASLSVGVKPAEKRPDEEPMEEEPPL
HDAC4, sequence (O15379 whole entry partner, species assumed): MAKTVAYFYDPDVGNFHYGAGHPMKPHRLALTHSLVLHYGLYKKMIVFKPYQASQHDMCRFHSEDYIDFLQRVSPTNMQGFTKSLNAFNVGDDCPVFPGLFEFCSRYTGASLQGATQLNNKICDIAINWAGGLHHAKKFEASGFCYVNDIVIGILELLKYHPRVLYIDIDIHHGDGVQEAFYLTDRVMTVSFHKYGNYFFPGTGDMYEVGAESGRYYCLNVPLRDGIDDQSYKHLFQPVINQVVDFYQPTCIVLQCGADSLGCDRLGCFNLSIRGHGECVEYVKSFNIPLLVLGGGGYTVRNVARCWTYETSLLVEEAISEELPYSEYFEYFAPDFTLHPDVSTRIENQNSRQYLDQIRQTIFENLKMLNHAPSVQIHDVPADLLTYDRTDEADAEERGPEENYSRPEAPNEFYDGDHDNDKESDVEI
Method: as §1

HDAC1 = HDAC1 (Homo sapiens, UniProt Q13547); assay: HDAC1 enzymatic assay (IP-HDAC1, 3H-acetyl release); assay type: biochemical; conditions: IP-HDAC1 incubated with inhibitor 24 hrs
HDAC1, sequence (Q13547 whole entry, species assumed): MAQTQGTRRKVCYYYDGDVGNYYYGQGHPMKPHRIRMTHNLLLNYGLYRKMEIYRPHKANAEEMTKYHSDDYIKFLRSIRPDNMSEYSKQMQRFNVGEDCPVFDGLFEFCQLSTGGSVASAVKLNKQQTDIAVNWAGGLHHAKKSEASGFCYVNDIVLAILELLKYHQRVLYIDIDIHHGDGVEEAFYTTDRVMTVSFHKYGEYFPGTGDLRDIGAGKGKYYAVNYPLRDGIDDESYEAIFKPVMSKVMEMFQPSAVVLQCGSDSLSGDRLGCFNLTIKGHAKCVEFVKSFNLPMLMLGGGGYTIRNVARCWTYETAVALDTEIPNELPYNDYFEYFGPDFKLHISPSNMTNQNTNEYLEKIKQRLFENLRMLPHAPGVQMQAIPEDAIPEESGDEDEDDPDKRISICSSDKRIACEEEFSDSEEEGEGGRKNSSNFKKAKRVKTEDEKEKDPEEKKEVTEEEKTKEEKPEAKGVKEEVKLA
Method: as §1

[2] = tested on: histone deacetylases (HDAC); conditions: in vitro cell-free enzyme assay; read-out: IC50, inhibition of histone deacetylases (HDAC); cited from earlier work
[3] = tested on: ex vivo AML patient blasts; assay: Cell cycle and apoptosis in ex vivo AML patient blasts; assay type: cell-based, human; conditions: for cell cycle arrest and apoptosis (caspase 3 activation): 4 ex vivo cultures, AML patients #102, #108, #109, #116
Method: FIG. 4: a) Cell cycle analyses and apoptosis carried out in ex vivo samples from AML patients identified with numbers; b) Cell cycle analysis, apoptosis and histone H3 acetylation levels of #116 AML cells after 20 hrs is of the indicated treatments.
(§3) Human leukemia cell line U937 was propagated in RPMI medium supplemented with 10% FBS (Foetal bovine serum; Hyclone) and antibiotics (100 U/mL penicillin, 100 μg/mL streptomycin and 250 ng/mL amphotericin-B). Cells were kept at the constant concentration of 200000 cells per milliliter of culture medium. For AML samples, bone marrow containing 80% to 90% leukemic blasts was purified over Ficoll. This study was approved by the Ethical Committee of the Second University of Naples.

[4] = tested on: breast cancer cells (ZR75.1); assay: Anti-proliferative and apoptogenic action in breast cancer cells; assay type: cell-based; conditions: data not shown
p21WAF1/CIP1 = assay: p21 expression, Western blot in U937 cells; assay type: cell-based, human
Method: as §1
(§4) FIG. 3: a) Cell cycle and apoptosis analysis carried out in U937 cells after 24 hrs with the indicated compounds; values are media of independent triplicates; b) CD11c expression analysis carried out in U937 cells with the indicated compounds; values are media of independent duplicates; c) Tubuline acetylation and p21 expression levels in U937 cells after 24 hrs with the indicated treatments; total ERKs expression levels are used for equal loading; d) acetylation of histone H3 under the conditions indicated in (c).
as §2, with “Western blots were shown for acetylated alpha-tubulin (Sigma, dilution 1:500) and total ERKs (Santa Cruz) or total tubulin (Sigma) were used to normalise for equal loading.” left out

p16INK4a promoter = assay: Methylation specific PCR for the p16 gene; assay type: cell-based; conditions: 24 hrs
Method: FIG. 2: a) Methylation specific PCR for the RARβ gene after 16 and 24 hrs of treatment with the indicated compounds; b) Methylation specific PCR for the p16 gene after 24 hrs of the indicated treatments. Samples are representative of real duplicates; c) p16 expression levels in U937 cells after 24 hrs with the indicated treatments; d) DNMT enzymatic in vitro assay carried out with 1.5 and 50 μM of the indicated compounds;
DNA extraction was performed as described below. Bisulfite treatment and PCR for the determination of p16 methylation was performed as described from the suppliers (Chemicon).

HDAC6 = biological target: T1, HDAC6 (Homo sapiens, UniProt Q9UBN7); assay: Alpha tubulin acetylation in U937 cells (HDAC6 readout); assay type: cell-based; conditions: U937, 6 and 16 hrs
T1 construct: Tubuline acetylation and p21 expression levels in U937 cells after 24 hrs with the indicated treatments; endogenous in cells; host or cells: U937
T1 sequence (Q9UBN7 whole entry): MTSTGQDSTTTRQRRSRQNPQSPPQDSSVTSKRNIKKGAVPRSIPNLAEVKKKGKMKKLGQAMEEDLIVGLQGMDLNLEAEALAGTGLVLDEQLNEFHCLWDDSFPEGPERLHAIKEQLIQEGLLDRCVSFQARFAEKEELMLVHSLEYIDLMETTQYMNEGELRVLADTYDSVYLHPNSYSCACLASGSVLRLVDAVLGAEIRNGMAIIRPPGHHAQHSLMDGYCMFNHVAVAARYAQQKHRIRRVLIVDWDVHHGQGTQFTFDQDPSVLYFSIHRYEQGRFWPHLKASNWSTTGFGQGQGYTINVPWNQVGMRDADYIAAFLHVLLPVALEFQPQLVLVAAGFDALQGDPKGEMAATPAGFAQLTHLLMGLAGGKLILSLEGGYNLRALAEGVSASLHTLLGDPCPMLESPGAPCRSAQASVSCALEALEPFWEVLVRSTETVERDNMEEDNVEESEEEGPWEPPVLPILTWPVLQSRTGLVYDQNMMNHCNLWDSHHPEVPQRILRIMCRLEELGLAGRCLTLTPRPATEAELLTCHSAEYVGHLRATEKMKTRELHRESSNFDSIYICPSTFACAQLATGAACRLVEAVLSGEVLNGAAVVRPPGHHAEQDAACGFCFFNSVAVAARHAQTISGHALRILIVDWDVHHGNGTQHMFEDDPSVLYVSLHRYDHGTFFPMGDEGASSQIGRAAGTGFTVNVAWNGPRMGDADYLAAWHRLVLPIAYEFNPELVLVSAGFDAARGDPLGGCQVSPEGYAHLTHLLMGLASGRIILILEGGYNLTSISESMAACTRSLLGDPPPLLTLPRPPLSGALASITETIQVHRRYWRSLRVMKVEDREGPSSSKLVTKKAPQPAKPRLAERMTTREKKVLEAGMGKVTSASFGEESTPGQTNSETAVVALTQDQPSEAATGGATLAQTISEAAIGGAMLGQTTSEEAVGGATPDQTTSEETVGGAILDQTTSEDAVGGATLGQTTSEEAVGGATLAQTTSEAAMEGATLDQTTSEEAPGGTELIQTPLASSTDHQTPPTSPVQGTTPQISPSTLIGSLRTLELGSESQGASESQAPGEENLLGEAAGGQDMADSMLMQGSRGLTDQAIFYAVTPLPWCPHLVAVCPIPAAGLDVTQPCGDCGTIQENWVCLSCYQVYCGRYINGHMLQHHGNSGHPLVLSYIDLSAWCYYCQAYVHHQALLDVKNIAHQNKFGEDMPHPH
Method: as §1, with “release. […]” for “release.”

[5] = tested on: U937 acute myeloid leukemia cell line; assay: Cell cycle analysis in U937 cells; assay type: cell-based, human
Method: as §1, §4, §3
MS-275 (Schering A G) was dissolved in ethanol and used at 5×10^−6M; valproic acid (VPA; Sigma) was used at 1 mM. All other compounds described were dissolved in DMSO (Sigma-Aldrich) and used at 1 or 5 μM.
2.5×10^5 cells were collected and resuspended in 500 μL of a hypotonic buffer (0.1% Triton X-100, 0.1% sodium citrate, 50 μg/mL propidium iodide, RNAse A). Cells were incubated in the dark for 30 min. Samples were acquired on a FACS-Calibur flow cytometer using the Cell Quest software (Becton Dickinson) and analysed with standard procedures using the Cell Quest software (Becton Dickinson) and the ModFit LT version 3 Software (Verity). All the experiments were performed 3 times.

HCT-116 cells = assay: MTT cytotoxicity assay, HCT-116; conditions: read-out: IC50 values, MTT cytotoxicity assay; HCT-116, 48 h
A-375 cells = assay: MTT cytotoxicity assay, A-375; conditions: read-out: IC50 values, MTT cytotoxicity assay; A-375, 48 h
[6] = tested on: HCT-116 colon carcinoma cells xenografted in immunoincompetent mice; conditions: for Normalised tumour weight: mean of n = 10
DU-145 cells = assay: MTT cytotoxicity assay, DU-145; conditions: read-out: IC50 values, MTT cytotoxicity assay; DU-145, 48 h
[7] = Earlier tolerability tests in mice; assay type: in vivo; conditions: 30 mg/kg
From the text: There were 10 animals in each group.

[8] = day 1, 20 mg/kg i.p. every second day
[9] = day 4, 20 mg/kg i.p. every second day
[10] = day 12, 20 mg/kg i.p. every second day
[11] = day 17, 20 mg/kg i.p. every second day
[12] = day 22, 20 mg/kg i.p. every second day

Compound: O=C(NCCSSCCNC(=O)/C(Cc1ccc(O)c(Br)c1)=N/O)/C(Cc1ccc(O)c(Br)c1)=N/O [UVI5000, Psammaplin A]
- apoptogenic effect (caspase 3) (U937 cells): strongest apoptogenic effect
- anti-proliferative and apoptogenic action [1]: confirmed
- concentration to inhibit HDAC in cell-based assay relative to enzyme-based assay (HDAC): 1800 times
- global histone H3 acetylation (histone H3): moderate time-dependent increase
- HDAC4 deacetylase activity inhibition (HDAC4): only moderate activity
- HDAC1 inhibition (HDAC1): only a weak inhibitor of HDAC1
- IC50 [2]: 0.0042 µM
- cell cycle arrest and apoptosis (caspase 3 activation) [3]: induced cell cycle arrest and apoptosis
- anti-proliferative and apoptogenic action [4]: confirmed
- expression of p21WAF1/CIP1 (p21WAF1/CIP1; U937, 6 and 16 hrs): dramatically increased
- unmethylated p16INK4a promoter DNA (MSP) (p16INK4a promoter): displayed a similar activity
- inhibition of HDAC6 (alpha tubulin acetylation) (HDAC6): inhibited the activity of HDAC6
- cell cycle arrest, position of the block ([5]; U937, 30 hrs, 1 and 5 μM): arrests in the S and G2 phases

Compound: Nc1ccccc1NC(=O)c1ccc(CNC(=O)OCc2cccnc2)cc1 [MS-275]
- cell cycle arrest and apoptosis (caspase 3 activation) [3]: activities similar to UVI5008
- IC50 (HCT-116 cells): 2.3 ± 0.3 µM
- IC50 (A-375 cells): 2.4 ± 0.7 µM
- Percent Growth Inhibition after 22 days ([6]; 20 mg/kg i.p. every second day): 35 ± 12%
- Normalised tumour weight [6, 8]: 100 ± 25 mg
- Normalised tumour weight [6, 9]: 202.6 ± 81.5 mg
- Normalised tumour weight [6, 10]: 746.65 ± 185 mg
- Normalised tumour weight [6, 11]: 1360.61 ± 288 mg
- Normalised tumour weight [6, 12]: 2423.09 ± 445.5 mg
- IC50 (DU-145 cells): 8.2 ± 0.6 µM

Compound: SAHA
- cell cycle arrest and apoptosis (caspase 3 activation) [3]: activities similar to UVI5008
- unmethylated p16INK4a promoter DNA (MSP) (p16INK4a promoter): inactive
- Normalised tumour weight [6, 8]: 100 ± 24 mg
- Normalised tumour weight [6, 9]: 166.69 ± 56.8 mg
- Normalised tumour weight [6, 10]: 892.95 ± 267.6 mg
- Normalised tumour weight [6, 11]: 1915.59 ± 409.5 mg
- Normalised tumour weight [6, 12]: 2952.8 ± 636.4 mg
- mortality [7]: 60%
- tolerability [7]: not tolerable

Compound: CSCCNC(=O)/C(Cc1c[nH]c2ccc(Br)cc12)=N/O [UVI5020]
- apoptotic activity ([3]; 5 μM, two samples of patient blasts): only a weak induction of apoptosis
- p21WAF1/CIP1 induction (FIG. 3c) (p21WAF1/CIP1; U937, 24 hrs): enhanced expression
- cell cycle arrest and apoptosis, relative to UVI5008 (FIG. 3a) ([5]; U937, 24 hrs): inactive at inducing apoptosis and G2M arrest but it induces a G1 arrest

Compound: Nc1ncn([C@@H]2O[C@H](CO)[C@@H](O)[C@H]2O)c(=O)n1 [5-azacytidine]
- unmethylated p16INK4a promoter DNA (MSP) (p16INK4a promoter): very similar to that seen with UVI5008

From patent US8338473B2, “Derivatives of psammaplin A, a method for their synthesis and their uses for the prevention or treatment of cancer” (Centre National de la Recherche Scientifique, priority 2007, dated 2012)
